From PMC9861386, “N-Heterocyclic Carbene-Iridium Complexes as Photosensitizers for In Vitro Photodynamic Therapy to Trigger Non-Apoptotic Cell Death in Cancer Cells” (Molecules, 2023)

What was measured:
[1] = tested on: PC-3 cells; assay: Subcellular localization by confocal microscopy with MitoTracker Deep Red; assay type: cell-based, human; conditions: 500 nM, 24 h
Text: The intracellular localization of complex 4a was studied by confocal laser scanning microscopy. The treatment of PC-3 (human prostate) cells with complex 4a led to the development of intense fluorescence in the cytoplasm (Figure 9B). Specific subcellular location was investigated by staining the organelles with the specific fluorescent probe MitoTracker Deep Red (Figure 9C). […] However, an accumulation of complex 4a in lysosomes or the endoplasmic reticulum cannot be excluded.
Cell imaging was performed on an LSM 710 NLO-Meta confocal microscope with spectral detection (Zeiss, Göttingen, Germany). Images were taken through a 40×/1.2 W objective. Microscopy imaging experiments were performed with PC-3 cells that were cultured in 6-well plates and on glass slides (180,000 cells per well) for 18 h before incubation with complex 4a at different concentrations (0.25 μM, 0.5 μM and 1 μM) for various times. After 24 h, the MitoTracker deep red probe (Fisher Scientific, Illkirch, France) was incubated on live cells at a final concentration of 200 nM during 15 min at 37 °C in a 5% CO2 humidified incubator and then observed in one pass two channels 440–544 nm for complex 4a (two-photon excitation at 720 nm) and 644–700 nm for MitoTracker (excitation at 633 nm) at the same time. Merged images were generated to evaluate colocalization of the mitochondrial probe with complex 4a. […]

[2] = tested on: PARP, caspase-7 and caspase-8 processing; assay: Western blot of apoptotic biomarkers; assay type: cell-based, human; conditions: 458 nm irradiation, 72 h
Text: Its effects on apoptotic biochemical markers by Western blotting analysis in MCF7/FasR cells and its Bcl-xL-overexpressed counterpart in comparison with the apoptotic inducer TNFα were examined (Figure 13). Cleavage-mediated inactivation of DNA repair enzyme poly(ADP-ribose) polymerase (PARP) by executioner caspases (e.g., caspase-3, caspase-7) has been considered as a marker of apoptotic cell death. The treatment with TNFα was associated with the proteolytic cleavage of PARP (decreased in 113 kDa full-length, increased in apoptotic 89 kDa fragment) in MCF7/FasR cells (Figure 13A). Since the MCF7 cell line lacks caspase-3 due to the functional deletion of the CASP-3 gene, caspase-7 is the only executioner caspase in these cells, as evidenced by the decreased content in the 35 kDa full-length pro-caspase-7 observed upon TNFα treatment (Figure 13A). The upstream caspase-8 that can directly process caspase-7 (extrinsic pathway) was also activated (loss of 55 kDa full-length pro-caspase-8). […] Importantly, the overexpression of Bcl-xL had no effect on apoptotic markers, regardless of the concentration of complex 4a used, implying that a MOMP-dependent mechanism is unlikely to be involved. In parallel experiments, cell viability and quantification of ATP and GSH levels were assessed. […] The early transient elevation of cytosolic ATP level is a necessary condition for the apoptotic cell death process, followed by a drop that correlates with the time course of cell death. […]
We next evaluated the effect of the pan-caspase inhibitor z-VAD-fmk on caspase signaling. […]
Cell lysate preparation and Western blotting were carried out as previously described. […] Proteins were visualized by ECL (Clarity Western ECL Substrate, Bio-Rad, Marnes-la-Coquette, France) using anti-rabbit or anti-mouse HRP-conjugated IgG (Bio-Rad); analysis of Western blots was assessed with a ChemiDoc imaging system (Bio-Rad).
Figure 13 Evaluation of apoptotic biomarkers. […] (B) MTT, ATP and GSH assays were evaluated in duplicate samples. […]

CC(C)[n+]1ccn2[c]1[Ir-3]13([c]4ccccc4-c4cccc[n+]41)([c]1ccccc1-c1cccc[n+]13)[c]1n(cc[n+]1C(C)C)C2.F[P-](F)(F)(F)(F)F [Complex 4a]
Pearson colocalization coefficient with MitoTracker Deep Red (mitochondria) [1]: 88%
processing of PARP, caspase-7 and caspase-8 at GI50 concentration ([2]; 50 nM, MCF7/FasR and MCF7/FasR/Bcl-xL): no processing of PARP, caspase-7 and caspase-8 were observed
processing of PARP, caspase-7 and caspase-8 at high concentration ([2]; 250 nM and 1 µM, MCF7/FasR): cleavage of PARP and processing of caspase-7 and caspase-8
procaspase-7 expression and PARP activation ([2]; 500 nM, MCF7/FasR): significant loss of procaspase-7 expression
